What was measured:
[1] = target: CYP26A1 (Homo sapiens (Human), UniProt O43174); assay: Cell-based inhibitor assay ([3H]-RA metabolism), CYP26A1 stably transfected HeLa cells
Method: (§1) CYP26A1 or CYP26B1 stably transfected HeLa cells were maintained in Minimum Essential Medium (MEM) containing 10% fetal bovine serum (FBS) and 100 μg/mL hygromycin. Exponentially growing cells were harvested by incubation in trypsin. Cells were then collected and re-plated in 48-well culture plates at 5×10^5 cells in 0.2 mL of culture medium containing 0.05 μCi [^3H]-RA in the presence or absence of increasing concentrations of a test compound. The test compounds were diluted in dimethyl sulfoxide (DMSO) and then added in duplicate to wells at 0.01, 0.1, 1, 10 and 100 μM final concentration. As a positive control for inhibition of RA metabolism, cells were also incubated with ketoconazole at the same concentrations as above. Cells were incubated for 3 hours at 37° C. Retinoids were then extracted using the procedure of Bligh, et al., (1959), Canadian Journal of Biochemistry 37, 911-917, which was modified by using dichloromethane instead of chloroform. Each sample's water soluble radioactivity level was quantified using a β-scintillation counter (using Ecolume scintillation fluid, available from MP Biomedicals of Solon, Ohio, USA). IC50 values represented the concentration of inhibitor required to inhibit all trans-RA metabolism by 50%, and were derived from log transformed data.

[2] = target: CYP26B1 (Homo sapiens (Human), UniProt Q9NR63); assay: Cell-based inhibitor assay ([3H]-RA metabolism), CYP26B1 stably transfected HeLa cells
Chain of CYP26B1 (Q9NR63 whole entry): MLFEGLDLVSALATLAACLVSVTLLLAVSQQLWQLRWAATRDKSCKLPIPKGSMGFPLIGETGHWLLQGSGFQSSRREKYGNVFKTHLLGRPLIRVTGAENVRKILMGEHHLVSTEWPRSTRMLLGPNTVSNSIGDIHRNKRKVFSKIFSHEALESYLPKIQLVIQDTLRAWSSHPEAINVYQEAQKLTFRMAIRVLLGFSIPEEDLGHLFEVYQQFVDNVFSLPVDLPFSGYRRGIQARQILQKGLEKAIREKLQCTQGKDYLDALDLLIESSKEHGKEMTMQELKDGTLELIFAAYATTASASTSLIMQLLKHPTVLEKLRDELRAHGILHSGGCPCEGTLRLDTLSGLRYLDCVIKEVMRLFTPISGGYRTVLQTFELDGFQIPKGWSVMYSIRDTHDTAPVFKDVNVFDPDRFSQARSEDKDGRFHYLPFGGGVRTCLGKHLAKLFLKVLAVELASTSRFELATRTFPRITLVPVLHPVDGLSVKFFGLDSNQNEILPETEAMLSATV
Method: as §1

[3] = system: RA target gene (CYP26A1) expression in MCF-7 cells; assay: Enhancement of RA activity assay, QPCR of CYP26A1 expression in MCF-7 cells; type: cell-based; conditions: 0.1 μM RA plus 1 μM compound, 24, 48, 72 hours
Method: An RA activity assay was used to measure the ability of compounds that inhibit CYP26 to enhance activity of RA, for example, by limiting its catabolism. This assay measured expression of endogenous RA target genes in MCF-7 cells that have been treated with RA and a compound of interest. A compound that inhibits CYP26 activity will have the effect of prolonging the induction of RA target genes in response to RA.
Exponentially growing MCF-7 cells were treated with trypsin, collected and plated into 6-well culture dishes at 300,000 cells per well. Once cells had reached confluency, they were treated with CYP26 inhibitor test compounds or with ketoconazole (a non-selective CYP inhibitor) at a final concentration of 1 μM, or an equal volume of DMSO as a control. […] RNA was harvested using Trizol reagent after 24, 48, and 72 hours of treatment. cDNA was synthesized from 2 μg of total RNA using Superscript III cDNA synthesis kit with random priming (available from Life Technologies, Burlington, ON, Canada). Analysis of expression of the RA inducible CYP26A1 gene was quantified by qPCR normalized against expression of PMM2 with Sybr Select Master Mix (Life Technologies) and gene specific primers in a two-step thermal cycling reaction. Data is provided for a CYP26B1 selective inhibitor, which enhances the induction of CYP26A1. […]

[4] = system: MC3T3 cells; assay: RA metabolism by MC3T3 pre-osteoblasts; type: cell-based, mouse
Method: These experiments are to assess the ability of primary cells, or cell lines to metabolize RA, and to determine the effect of inhibition of CYP26A1 or CYP26B1 on this ability. For these experiments, cells are plated into 48-well plates and treated with a radiolabeled (^3H) RA. The extent of conversion of this labeled RA to water soluble metabolites is determined as above for in the cell-based inhibitor assay. Primary human bone marrow stromal cells (available from Lonza) were cultured in MyeloCult (available from Stem Cell Technologies, Vancouver, Canada). Mouse OP9 bone marrow stromal cells and MC3T3 pre-osteoblasts were cultured as above. Cells are plated in the appropriate culture medium and allowed to form a monolayer. Cells are then pre-treated with either DMSO (vehicle control) or RA (1 μM) for 24 hours to induce CYP26 expression. Vehicle, and RA induced cells are then exposed to ^3H-RA in the presence or absence of test CYP26 inhibitor to examine the effects on RA metabolism. Cells are incubated for 3 hours with labeled RA, and metabolites extracted and analyzed as above.

[5] = system: THP-1 cells; assay: Leukemia cell colony formation, THP-1 cells; type: cell-based, human; conditions: RA plus compound, culture with stromal cells
Method: This experiment is used to test the long-term proliferative ability of hematopoietic stem and progenitor cells as well as leukemic stem cells. Colony forming ability in long term cultures is indicative of stem/progenitor cell activity. […] For these experiments, bone marrow stromal and leukemic cell co-cultures are prepared as described above and treated with RA and/or CYP26 inhibitor compound for 72 hours. After the treatment period, leukemic cells are collected and re-plated in semi-solid methylcellulose medium to assess colony forming ability. 500 leukemic cells are plated per dish in 35 mm plates in 1.1 ml of MethoCult (available from STEMCELL Technologies, Vancouver, Canada). Triplicate plates are prepared per treatment, and cultures are grown for 14-16 days in a CO2 incubator. After the culture period colonies are counted under a dissecting microscope.

[6] = system: kasumi-1 human AML cells; assay: CD34+CD38- LSC analysis by FACS, Kasumi-1 cells with or without OP9 stroma; type: cell-based; conditions: 1 μM RA plus compound, OP9 stroma present, 72 hours
Method: Many human non-APL AML cell lines are sensitive to RA-induced differentiation. However, co-culture of leukemic cells with bone marrow stromal cells can block this effect of RA. This assay tests the ability of CYP26 inhibitor compounds to overcome the protective effect that stromal cells have on leukemic cell differentiation. For these experiments, OP9 mouse bone marrow stromal cells are grown MEM-α containing 20% FBS, in 24 well plates until a cell monolayer is formed. OP9 cells are then irradiated (15Gy) using a GammaCell 20 cesium-137 source (located at Queen's University) in order to induce growth arrest. Leukemic cells are then added to the irradiated monolayers, or control wells without OP9 cells. AML cell lines (150,000 cells) are then plated onto OP9 monolayers in their appropriated growth medium; THP-1 RPMI-1640 medium containing 10% FBS; MDSL, RPMI-1640 medium containing 10% FBS and 10 ng/ml recombinant human IL-3; Kasumi-1, RPMI-1640 containing 20% FBS; MV4-11, IMDM containing 10% FBS. […] Stained cells are then sorted by FACS in a BD FACS Aria 3 flow cytometer (Queen's University) using FACS Diva software, to assess percentage of cells that are CD11b^+, the relative expression levels of CD11b (by median fluorescence intensity—MFI), or percentage of CD34^+CD38^− leukemic stem cells (LSCs). […]

Chain of CYP26A1 (O43174 whole entry): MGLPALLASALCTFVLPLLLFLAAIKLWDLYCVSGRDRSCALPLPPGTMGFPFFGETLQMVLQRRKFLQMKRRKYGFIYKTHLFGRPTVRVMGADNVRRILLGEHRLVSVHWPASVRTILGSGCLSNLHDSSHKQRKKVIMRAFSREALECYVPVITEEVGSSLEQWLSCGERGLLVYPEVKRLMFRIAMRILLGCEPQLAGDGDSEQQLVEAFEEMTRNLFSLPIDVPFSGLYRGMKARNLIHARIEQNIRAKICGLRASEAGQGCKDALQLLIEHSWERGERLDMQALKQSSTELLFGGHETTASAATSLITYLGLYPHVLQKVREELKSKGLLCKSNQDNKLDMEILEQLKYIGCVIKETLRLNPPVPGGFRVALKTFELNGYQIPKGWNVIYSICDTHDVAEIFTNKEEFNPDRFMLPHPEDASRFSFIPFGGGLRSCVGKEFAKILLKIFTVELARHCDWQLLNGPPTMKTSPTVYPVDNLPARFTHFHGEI

SMILES: CC(C)(C)c1cccc(-c2cc3cc(/C=C/C(=O)O)ccc3[nH]2)c1 [Compound 026]
- CYP26A1 inhibition compared with ketoconazole ([1]; FIG. 1): comparable to ketoconazole
- IC50 ([1]; HeLa cell-based assay, 3 hours): 7 µM
- CYP26A1 Rel. to keto ([1]; IC50 relative to ketoconazole): 4.4
- CYP26B1 inhibition compared with ketoconazole ([2]; FIG. 2): dramatically increased inhibition of CYP26B1 enzyme activity compared with ketoconazole
- Selectivity CYP26B1 versus CYP26A1 ([2]; HeLa cell-based assay): highly selective towards CYP26B1
- IC50 ([2]; HeLa cell-based assay, 3 hours): 0.2 µM
- CYP26B1 Rel. to keto ([2]; IC50 relative to ketoconazole): 0.02
- RA target gene transcription on co-treatment with RA [3]: enhanced RA target gene transcription, and prolonged this response to at least 72 hours
- RA metabolism, basal and RA-induced [4]: block basal as well as RA-induced RA metabolism in these cells in a dose-dependent manner
- Colony forming units [5]: rescued the effects of RA and decreased colony forming units
- Number of CD34+CD38- cells (LSCs) [6]: restored the ability of RA to reduce the number of
